# Patent US4398023A, “β-1,3-Glucanpolyol, process for preparation thereof, and utilization thereof” (Meito Sangyo Kabushiki Kaisha, priority 1979, dated 1983)
# Legend:
# CCM-adenocarcinoma = test: Antitumor activity test using CCM-adenocarcinoma in ICR-JCL mice; format: in vivo; conditions: 1 mg/kg/day, intraperitoneal, once a day for 10 days, fifth week
# Protocol: (§1) The ascites cells of Sarcoma 180 were inoculated peritoneally in ICR-JCL mice having a body weight of about 23 g. […] Starting 24 hours after the transplantation, the glucanpolyol of this invention was intraperitoneally administered once a day for 10 days. In the fifth week, the tumor was enucleated and its weight was compared with that in non-treated groups. The tumor inhibition ratio was calculated, and the number of tumors which completely regressed was observed.
# (§2) The tumor inhibition ratio was calculated in accordance with the following equation. [formula] wherein C is the average weight of tumor in non-treated groups (10 mice per group),
# (§3) T is the average weight of tumor in treated groups (10 mice per group).
# (8) An antitumor activity test using CCM-adenocarcinoma in ICR-JCL mice
# Six million CCM-adenocarcinoma cells were transplanted into the subcutaneous portion of the right inguinal part of ICR-JCL mice having a body weight of about 23 g, and then the same operation as in (1) above was performed.
# [1] = test system: NTF-reticulum cell sarcoma; test: Antitumor activity test using NTF-reticulum cell sarcoma in ICR-JCL mice; format: in vivo; conditions: 1 mg/kg/day, intraperitoneal, once a day for 10 days, fifth week
# Protocol: as §1, §2, §3
# (9) An antitumor activity test using NTF-reticulum cell sarcoma in ICR-JCL mice
# Six million NFT-reticulum cell sarcoma cells were transplanted into the subcutaneous portion of the right inguinal part of ICR-JCL mice having a body weight of about 23 g, and then, the same operation as in (1) above was performed.
# Sarcoma 180 [2] = test: Antitumor activity test using Sarcoma 180 in ddY mice; format: in vivo; conditions: 1 mg/kg/day, intraperitoneal, once a day for 10 days, fifth week
# Protocol: as §1, §2, §3
# (7) An antitumor activity test using Sarcoma 180 in ddY mice
# Six million Sarcoma 180 cells were transplanted into the subcutaneous portion of the right inguinal part of ddY mice having a body weight of about 23 g, and then, the same operation as in (1) above was performed.
# Meth-A = test: Antitumor activity test using Meth-A in Balb/c mice; format: in vivo; conditions: intraperitoneal, once a day for 10 days, fifth week
# Protocol: (§4) Starting 24 hours after the transplantation, the glucanpolyol of this invention was intraperitoneally administered once a day for 10 days. In the fifth week, the tumor was enucleated and its weight was compared with that in non-treated groups. The tumor inhibition ratio was calculated, and the number of tumors which completely regressed was observed.
# as §2, §3
# (3) An antitumor activity test using Meth-A in Balb/c mice
# Sarcoma 180 [3] = test: Antitumor activity test using Sarcoma 180 in C57 BL/6 mice; format: in vivo; conditions: 1 mg/kg/day, intraperitoneal, once a day for 10 days, fifth week
# Protocol: as §1, §2, §3
# (6) An antitumor activity test using Sarcoma 180 in C57 BL/6 mice
# Six million Sarcoma 180 cells were transplanted into the subcutaneous portion of the right inguinal part of the C57 BL/6 mice having a body weight of about 20 g, and then the same operation as in (1) above was performed.
# Sarcoma 180 [4] = test: Antitumor activity test using Sarcoma 180 in C3H/He mice; format: in vivo; conditions: intraperitoneal, once a day for 10 days, fifth week
# Protocol: as §4, §2, §3
# (4) An antitumor activity test using Sarcoma 180 in C3H/He mice
# Sarcoma 180 [5] = test: Antitumor activity test using Sarcoma 180 in Balb/c mice; format: in vivo; conditions: 1 mg/kg/day, intraperitoneal, once a day for 10 days, fifth week
# Protocol: as §1, §2, §3
# (5) An antitumor activity test using Sarcoma 180 in Balb/c mice
# Six million Sarcoma 180 cells were transplanted into the subcutaneous portion of the right inguinal part of the Balb/c mice having a body weight of about 23 g, and then, the same operation as in (1 ) above was performed.
# [6] = Intrinsic viscosity [.eta.]; format: physicochemical; conditions: 25° C., aqueous solution; concentration in g/100 ml
# Protocol: The intrinsic viscosity, as used in the present invention, is [.eta.] defined by the following equation. [formula] wherein .eta.sp =(.eta.-.eta.o)/.eta.o =/.eta.o -1 in which .eta. is the viscosity (at 25° C. in aqueous solution) of the solution and .eta.o is the viscosity of the solvent; and C is the concentration in g/100 ml.
# Ehrlich Carcinoma = test: Antitumor activity test using Ehrlich Carcinoma in ICR-JCL mice; format: in vivo; conditions: intraperitoneal, once a day for 10 days, fifth week
# Protocol: as §4, §2, §3
# (2) An antitumor activity test using Ehrlich Carcinoma in ICR-JCL mice
# Sarcoma 180 [7] = test: Antitumor activity test using Sarcoma 180 in ICR-JCL mice; format: in vivo; conditions: intraperitoneal, once a day for 10 days, fifth week
# Protocol: (1) An antitumor activity test using Sarcoma 180 in ICR-JCL mice
# as §4, §2, §3
# ICR-JCL mice = test: Toxicity (LD50) on ICR-JCL mice; format: in vivo; conditions: ICR-JCL mice
# From the text: The toxicity of the β-1,3-glucanpolyol of this invention is very low, and the LD50 values of the products obtained in Examples 1, 4 and 5, for example, on ICR-JCL mice are as shown in Table 10.
substance,measurement,setting,value
"β-1,3-glucanpolyol [Example 2]",Average weight of tumor,CCM-adenocarcinoma,0.61 g
same,Complete regression,CCM-adenocarcinoma,8/10
same,Tumor inhibition ratio,CCM-adenocarcinoma,95.0%
same,Average weight of tumor,[1],0.37 g
same,Complete regression,[1],8/10
same,Tumor inhibition ratio,[1],93.6%
same,Average weight of tumor,Sarcoma 180 [2],1.08 g
same,Complete regression,Sarcoma 180 [2],7/10
same,Tumor inhibition ratio,Sarcoma 180 [2],90.3%
same,Average weight of tumor,Meth-A; 5 mg/kg/day,6.73 g
same,Complete regression,Meth-A; 5 mg/kg/day,0/10
same,Tumor inhibition ratio,Meth-A; 5 mg/kg/day,49.6%
same,Average weight of tumor,Sarcoma 180 [3],0.21 g
same,Complete regression,Sarcoma 180 [3],8/10
same,Tumor inhibition ratio,Sarcoma 180 [3],94.1%
same,Average weight of tumor,Sarcoma 180 [4]; 5 mg/kg/day,3.50 g
same,Complete regression,Sarcoma 180 [4]; 5 mg/kg/day,4/10
same,Tumor inhibition ratio,Sarcoma 180 [4]; 5 mg/kg/day,72.9%
same,Average weight of tumor,Sarcoma 180 [5],0.09 g
same,Complete regression,Sarcoma 180 [5],8/10
same,Tumor inhibition ratio,Sarcoma 180 [5],97.5%
same,Intrinsic viscosity [.eta.],[6],7.25 dL/g
same,Average weight of tumor,Ehrlich Carcinoma; 1 mg/kg/day,1.27 g
same,Complete regression,Ehrlich Carcinoma; 1 mg/kg/day,6/10
same,Tumor inhibition ratio,Ehrlich Carcinoma; 1 mg/kg/day,91.5%
same,Average weight of tumor,Ehrlich Carcinoma; 5 mg/kg/day,0.83 g
same,Complete regression,Ehrlich Carcinoma; 5 mg/kg/day,7/10
same,Tumor inhibition ratio,Ehrlich Carcinoma; 5 mg/kg/day,94.4%
same,Average weight of tumor,Sarcoma 180 [7]; 5 mg/kg/day,0.30 g
same,Complete regression,Sarcoma 180 [7]; 5 mg/kg/day,8/10
same,Tumor inhibition ratio,Sarcoma 180 [7]; 5 mg/kg/day,97.3%
"β-1,3-glucanpolyol [Example 1]",Average weight of tumor,CCM-adenocarcinoma,0.52 g
same,Complete regression,CCM-adenocarcinoma,7/10
same,Tumor inhibition ratio,CCM-adenocarcinoma,95.7%
same,Average weight of tumor,[1],0.51 g
same,Complete regression,[1],8/10
same,Tumor inhibition ratio,[1],91.1%
same,Average weight of tumor,Sarcoma 180 [2],0.39 g
same,Complete regression,Sarcoma 180 [2],7/10
same,Tumor inhibition ratio,Sarcoma 180 [2],96.5%
same,Average weight of tumor,Meth-A; 1 mg/kg/day,7.74 g
same,Complete regression,Meth-A; 1 mg/kg/day,0/10
same,Tumor inhibition ratio,Meth-A; 1 mg/kg/day,42.1%
same,Average weight of tumor,Meth-A; 5 mg/kg/day,5.57 g
same,Complete regression,Meth-A; 5 mg/kg/day,0/10
same,Tumor inhibition ratio,Meth-A; 5 mg/kg/day,58.3%
same,Average weight of tumor,Meth-A; 20 mg/kg/day,9.25 g
same,Complete regression,Meth-A; 20 mg/kg/day,0/10
same,Tumor inhibition ratio,Meth-A; 20 mg/kg/day,30.8%
same,Average weight of tumor,Sarcoma 180 [3],0.15 g
same,Complete regression,Sarcoma 180 [3],8/10
same,Tumor inhibition ratio,Sarcoma 180 [3],95.8%
same,Average weight of tumor,Sarcoma 180 [4]; 1 mg/kg/day,5.14 g
same,Complete regression,Sarcoma 180 [4]; 1 mg/kg/day,0/10
same,Tumor inhibition ratio,Sarcoma 180 [4]; 1 mg/kg/day,60.2%
same,Average weight of tumor,Sarcoma 180 [4]; 5 mg/kg/day,2.14 g
same,Complete regression,Sarcoma 180 [4]; 5 mg/kg/day,6/10
same,Tumor inhibition ratio,Sarcoma 180 [4]; 5 mg/kg/day,83.4%
same,Average weight of tumor,Sarcoma 180 [4]; 20 mg/kg/day,4.62 g
same,Complete regression,Sarcoma 180 [4]; 20 mg/kg/day,1/10
same,Tumor inhibition ratio,Sarcoma 180 [4]; 20 mg/kg/day,64.2%
same,Average weight of tumor,Sarcoma 180 [5],0.08 g
same,Complete regression,Sarcoma 180 [5],9/10
same,Tumor inhibition ratio,Sarcoma 180 [5],97.8%
same,Intrinsic viscosity [.eta.],[6],6.21 dL/g
same,Average weight of tumor,Ehrlich Carcinoma; 1 mg/kg/day,0 g
same,Complete regression,Ehrlich Carcinoma; 1 mg/kg/day,10/10
same,Tumor inhibition ratio,Ehrlich Carcinoma; 1 mg/kg/day,100%
same,Average weight of tumor,Ehrlich Carcinoma; 5 mg/kg/day,0 g
same,Complete regression,Ehrlich Carcinoma; 5 mg/kg/day,10/10
same,Tumor inhibition ratio,Ehrlich Carcinoma; 5 mg/kg/day,100%
same,Average weight of tumor,Ehrlich Carcinoma; 20 mg/kg/day,0.31 g
same,Complete regression,Ehrlich Carcinoma; 20 mg/kg/day,7/10
same,Tumor inhibition ratio,Ehrlich Carcinoma; 20 mg/kg/day,97.9%
same,Average weight of tumor,Sarcoma 180 [7]; 1 mg/kg/day,0.28 g
same,Complete regression,Sarcoma 180 [7]; 1 mg/kg/day,9/10
same,Tumor inhibition ratio,Sarcoma 180 [7]; 1 mg/kg/day,97.5%
same,Average weight of tumor,Sarcoma 180 [7]; 5 mg/kg/day,0 g
same,Complete regression,Sarcoma 180 [7]; 5 mg/kg/day,10/10
same,Tumor inhibition ratio,Sarcoma 180 [7]; 5 mg/kg/day,100%
same,Average weight of tumor,Sarcoma 180 [7]; 10 mg/kg/day,0.17 g
same,Complete regression,Sarcoma 180 [7]; 10 mg/kg/day,9/10
same,Tumor inhibition ratio,Sarcoma 180 [7]; 10 mg/kg/day,98.5%
same,LD50 Intraperitoneal administration,ICR-JCL mice; intraperitoneal,above 2 g/kg
same,LD50 Intravenous administration,ICR-JCL mice; intravenous,above 0.5 g/kg
same,LD50 Oral administration,ICR-JCL mice; oral,above 20 g/kg
